Test results published in patent US11952384B2, “Anti-tumor compound and preparation method and use thereof” (DUALITY BIOLOGICS (SUZHOU) CO., LTD., priority 2020, dated 2024).
Where two headings read alike, the source gives them in different places.

Experiments:
[1] = system: MDA-MB-231 cells; test: Inhibition of in vitro proliferation of tumor cells by compounds (CTG, 6 days); assay type: cell-based; settings: small molecule fragments, 6 days of culture, CTG, read-out: MDA-MB-231 IC50
Method: To test the inhibitory activity of the pharmaceutical compounds on the in vitro proliferation of NCI-N87, JIMT-1 and MBA-MB-231 tumor cells. The cells were treated with compounds at different concentrations in vitro, and after 6 days of culture, the proliferation of cells was detected using CTG (CellTiter-Glo® Luminescent Cell Viability Assay, Promega, Cat. No. G7558) reagents, and the in vitro activity of the compounds was evaluated according to the IC50 value. • 1. Culturing of cells: NCI-N87/JIMT-1/MBA-MB-231 cells were cultured in RPMI-1640 medium containing 10% FBS. • 2. Preparation of cells: NCI-N87/JIMT-1/MBA-MB-231 cells in logarithmic phase were taken, washed with PBS once, and digested with 2-3 mL of trypsin for 2-3 min. After the cells were digested completely, 10-15 mL of cell culture was added to elute the digested cells. The eluate was centrifuged at 1000 rpm for 5 min, and the supernatant was discarded. The resulting cells were resuspended in 10-20 mL of cell culture to obtain a single cell suspension. • 3. Cell plating: the NCI-N87/JIMT-1/MBA-MB-231 single cell suspension was mixed well and adjusted to a viable cell density of 6×10^4 cells/mL with cell culture. The cell suspension with the adjusted density was mixed well and added to a 96-well cell culture plate at 50 μL/well. The culture plate was incubated in an incubator for 18 h (37° C., 5% CO2). • 4. Preparation of compounds: the compounds were dissolved in DMSO to obtain stock solutions at an initial concentration of 10 mM. There were 8 concentrations in total for the small molecule compounds: 300 nM, 100 nM, 30 nM, 10 nM, 3 nM, 1 nM, 0.3 nM, and 0.1 nM. • 5. Sample adding: the prepared samples to be detected at different concentrations were added to the culture plate, and two duplicate wells were set for each sample. The culture plate was incubated in an incubator for 6 days (37° C., 5% CO2). • 6. Color developing: the 96-well cell culture plate was taken out, added with the CTG reagent at 50 μL/well, and incubated at room temperature for 10 min. • 7. Plate reading: the 96-well cell culture plate was taken out, placed in a microplate reader, and measured for the chemiluminescence using the microplate reader. Data analysis: data were processed and analyzed using Microsoft Excel and Graphpad Prism 5.

[2] = system: Colo205 cells; test: as above; assay type: cell-based; settings: Homo sapiens, COLO 205, 144 h, Table 4, Test Example 2.4, small molecule fragments, 6 days of culture
Method: To test the inhibitory activity of the pharmaceutical compounds on the in vitro proliferation of NCI-N87 and Colo205 tumor cells. The cells were treated with compounds at different concentrations in vitro, and after 6 days of culture, the proliferation of cells was detected using CTG (CellTiter-Glo® Luminescent Cell Viability Assay, Promega, Cat. No. G7558) reagents, and the in vitro activity of the compounds was evaluated according to the IC50 value. • 1. Culturing of cells: NCI-N87/Colo205 cells were cultured in RPMI-1640 medium containing 10% FBS. • 2. Preparation of cells: NCI-N87/Colo205 cells in logarithmic phase were taken, washed with PBS once, and digested with 2-3 mL of trypsin for 2-3 min. After the cells were digested completely, 10-15 mL of cell culture was added to elute the digested cells. The eluate was centrifuged at 1000 rpm for 5 min, and the supernatant was discarded. […] Sample adding: the prepared samples to be detected at different concentrations were added to the culture plate, and two duplicate wells were set for each sample. […] Plate reading: the 96-well cell culture plate was taken out, placed in a microplate reader, and measured for the chemiluminescence using the microplate reader. Data analysis: data were processed and analyzed using Microsoft Excel and Graphpad Prism 5.

[3] = target: T1, BCRP (Homo sapiens, UniProt Q9UNQ0); test: in vitro; settings: for Papp A→B at 2 h: Caco-2, Papp (A-B) (10^−6, cm/s); for Papp B→A at 2 h: Caco-2, Papp (B-A) (10^−6, cm/s)
T1 sequence (Q9UNQ0 1-655): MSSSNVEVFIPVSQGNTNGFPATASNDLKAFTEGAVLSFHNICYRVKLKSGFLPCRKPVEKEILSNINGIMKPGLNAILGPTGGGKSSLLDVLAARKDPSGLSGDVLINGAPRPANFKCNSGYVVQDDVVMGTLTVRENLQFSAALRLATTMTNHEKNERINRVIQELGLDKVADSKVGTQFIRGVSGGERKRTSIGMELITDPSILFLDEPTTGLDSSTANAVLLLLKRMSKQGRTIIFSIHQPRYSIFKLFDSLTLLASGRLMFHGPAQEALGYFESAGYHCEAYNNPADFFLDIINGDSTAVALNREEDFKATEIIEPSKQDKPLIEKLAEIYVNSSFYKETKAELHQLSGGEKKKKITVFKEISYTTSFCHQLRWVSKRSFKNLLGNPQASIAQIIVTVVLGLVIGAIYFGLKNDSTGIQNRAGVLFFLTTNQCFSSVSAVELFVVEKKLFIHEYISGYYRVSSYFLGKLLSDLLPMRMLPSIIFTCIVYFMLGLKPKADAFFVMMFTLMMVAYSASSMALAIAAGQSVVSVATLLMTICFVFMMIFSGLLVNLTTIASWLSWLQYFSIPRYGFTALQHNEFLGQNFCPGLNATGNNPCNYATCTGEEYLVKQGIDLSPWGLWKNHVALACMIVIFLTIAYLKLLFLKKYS
Method: To investigate whether the compounds of the present invention is a substrate for efflux transporters P-gp and BCRP in a Caco-2 cell model, thereby providing preclinical basis for analyzing the drug-drug interaction in pharmacokinetics.
• 1) Cell culture medium was added to each well of the Transwell. The HTS Transwell plate was incubated under conditions of 37° C. and 5% CO2 for 1 h prior to cell inoculation. • 2) Caco-2 cells were diluted with culture medium and the cell suspension was dispensed into filter wells of the 96-well HTS Transwell plate. […] The cell culture medium was changed periodically. • 3) Monolayer cell resistance was measured using the Millicell Epithelial Volt-Ohm detection system. The resistance of each well was recorded. After all wells were measured, the Transwell plate was put back into the incubator. TEER of each well was calculated according to the formula. The TEER value of each well should be greater than 230 ohm·cm^2. […] Preparation for Transporter Test • 1) The Caco-2 plate was taken out from the incubator. The monolayer cells were washed with pre-heated HBSS twice. The plate was then incubated at 37° C. for 30 min. • 2) Stock solutions of the compounds were prepared in DMSO and diluted with HBSS to obtain working solutions. Digoxin was used as a reference substrate for P-gp and rosuvastatin was used as a reference substrate for BCRP. Propranolol was used as a high permeability marker. • 3) The working solution (without inhibitor) was added to the Transwell insert (apical compartment) to determine the rate of drug transport in the apical to basolateral direction. The transfer buffer was added to the wells in the receiver plate (basolateral compartment). The working solution (without inhibitor) was added to the receiver plate wells (basolateral compartment) to determine the rate of drug transport in the basolateral to apical direction. The Transwell insert (apical compartment) was filled with the transport buffer. PSC833 was added to the apical and basolateral compartments to determine the rate of drug transport in the presence of P-gp inhibitors. • 4) The sample was transferred from the working solution to the quenching solution, and a sample with a time of 0 was prepared. The Transwell plate was incubated under conditions of 37° C. and 5% CO2 for 2 h. • 5) At the end of the transport cycle, the samples were transferred from the apical and basolateral wells into a new 96-well plate. Cold acetonitrile or methanol containing the appropriate internal standard (IS) was added to each well of the plate. The plate was vortexed for 10 min. The samples were centrifuged. The supernatant of an aliquot was mixed with an appropriate amount of ultrapure water (depending on the LC-MS/MS signal response and peak shape) prior to the LC-MS/MS analysis. • 6) The stock solution of lucifer yellow in DMSO was prepared and diluted with HBSS to determine the amount of lucifer yellow leakage after a 2-hour transport period. The lucifer yellow solution was added to the apical compartment. HBSS was added to the basolateral compartment. The plate was incubated at 37° C. for 30 min, and a certain amount of the solution was directly taken from the apical and basolateral wells and transferred to a new 96-well plate. The lucifer yellow fluorescence was measured in a fluorescence plate reader with 485 nm excitation and 530 nm emission (to monitor monolayer integrity).
Data were calculated using Microsoft Excel. The percentage of the compound remaining at each time point was estimated by determining the peak area ratio from the extracted ion chromatogram.
For drug transport analysis in the Caco-2 cell model, the apparent permeability coefficient (Papp) can be calculated according to the following formula, in cm/s:
[formula] • wherein the concentration C is in nM, the volume V is in μL, the time T is in s, and the area S is in cm^2.
The recovery rate is calculated according to the following formula:

[4] = Homo sapiens, MDA-MB-231, 144 h, Table 2 (untitled), Test Example 2.2

Structure (SMILES)	IC50 [1, 4]	Papp A→B at 2 h [3]	Papp B→A at 2 h [3]	also measured
CC[C@@]1(O)C(=O)OCc2c1cc1n(c2=O)Cc2c-1nc1cc(F)c(C)c3c1c2[C@@H](NC(=O)C1CCC(O)CC1)CC3 (single isomer, unassigned) [P-II-2]				IC50 ([1]; Table 2 (untitled), Test Example 2.2): 19.3 nM
CC[C@@]1(O)C(=O)OCc2c1cc1n(c2=O)Cc2c-1nc1cc(F)c(C)c3c1c2[C@@H](NC(=O)C[C@@H](C)O)CC3 [P-III-20, (R)—N-((1S,9S)-9-ethyl-5-fluoro-9-hydroxy-4-methyl-10,13-dioxo-2,3,9,10,13,15-hexahydro-1H,12H-benzo[de]pyrano[3′,4′: 6,7]indolizino[1,2-b]quinolin-1-yl)-3-hydroxybutanamide]				IC50 ([1]; Homo sapiens, MDA-MB-231, 144 h, Table 3, Test Example 2.3): 6.65 nM; IC50 [2]: 20 nM
CC[C@@]1(O)C(=O)OCc2c1cc1n(c2=O)Cc2c-1nc1cc(F)c(C)c3c1c2[C@@H](NC(=O)[C@H]1C[C@H](O)C1)CC3 [P-II-4, (1r,3S)-N-((1S,9S)-9-ethyl-5-fluoro-9-hydroxy-4-methyl-10,13-dioxo-2,3,9,10,13,15-hexahydro-1H,12H-benzo[de]pyrano[3′,4′:6,7]indolizino[1,2-b]quinolin-1-yl)-3-hydroxycyclobutane-1-carboxamide]	7.6 nM	0.05 ×10⁻⁶ cm/s	1.72 ×10⁻⁶ cm/s	
CC[C@@]1(O)C(=O)OCc2c1cc1n(c2=O)Cc2c-1nc1cc(F)c(C)c3c1c2[C@@H](NC(=O)[C@H]1C[C@@H](O)C1)CC3 [P-II-3, (1s,3R)-N-((1S,9S)-9-ethyl-5-fluoro-9-hydroxy-4-methyl-10,13-dioxo-2,3,9,10,13,15-hexahydro-1H,12H-benzo[de]pyrano[3′,4′:6,7]indolizino[1,2-b]quinolin-1-yl)-3-hydroxycyclobutane-1-carboxamide]	9.4 nM	0.17 ×10⁻⁶ cm/s	4.83 ×10⁻⁶ cm/s	
CC[C@@]1(O)C(=O)OCc2c1cc1n(c2=O)Cc2c-1nc1cc(F)c(C)c3c1c2[C@@H](NC(=O)C1CCC(O)CC1)CC3 (single isomer, unassigned) [P-II-1]	12.9 nM			
